# Where no end group is shown, it is not given here.
# Test system: hMSCs
# Assay: Loss of stemness: STRO-1 expression by immunostaining
# Type: cell-based, human
# Conditions: Table 6, previously reported peptides in solution, 400 ng/mL
# Description: The cells were first fixed for 20 min with 4% paraformaldehyde/PBS at 4° C. After fixation, the cells were permeabilized in PBS containing 1% Triton X-100 for 15 min. Runx2, Osterix, Stro-1, Vinculin, Phalloidin, Osteopontin, Sox2, Sox9 antibodies were visualized by treating the cells with 1% (v/v) specific monoclonal antibodies for 1 hour at 37° C. Then the samples were incubated with Alexa Fluor® 568 or 647 (F(ab′)2 fragment of IgG(H+L)) during 30 min at room temperature. The cell nuclei were counterstained in 20 ng/mL DAPI for 10 min at room temperature.
# For this type of quantification the freeware image analysis ImageJ® software was used. The raw image was first converted to an 8-bit file, and then the unsharp mask feature was used (settings 1:0.2) to remove the image background (rolling ball radius 10). After smoothing, the resulting image, which appears similar to the original photomicrograph but with minimal background, was then converted to a binary image by setting a threshold. Threshold values were determined empirically by selecting a setting, which gave the most accurate binary image for a subset of randomly selected photomicrographs. The cell area was determined by manual delineation on raw fluorescent images. Total contact area and mean contact area per cell were calculated by “analyse particules” in ImageJ®. A minimum of 30 cells per condition were analyzed. Stro-1, CD-34+, and CD-105 expressions were determined using this procedure.
# hMSCs were cultured on conventional cell culture plastic plates with or without the presence in the cell culture media of different GFR-binding compounds as described herein (SEQ ID NO: 50 to 88) in solution. […] This was probed by Stro-1 immunostaining after cell fixation as described in the Methods section. The quantification of Stro-1 positive contact numbers and areas was performed as described in the Methods section. A minimum of 30 cells per condition were analyzed. Stro-1 positive marrow cells are multipotential and capable of differentiating into multiple mesenchymal lineages including stromal cells with a phenotype resembling vascular smooth muscle cells that can support hematopoiesis, adipocytes, osteoblasts, and chondrocytes.
# Using the method detailed in the description, the RMSD of 57 previously reported peptide sequences have been determined (Table 6) and correlated with the expression of STRO-1 in solution. […] One should note that it is commonly admitted that the expression of STRO-1 in a cell is indicative of a cell that is in a substantially non-differentiated state and the decrease of its expression of at least about 20% is indicative of a cell that has started a process of differentiation but which may not result in the differentiation of the cell. A decrease of more than 50% would be indicative of the presence of a significant shift towards a differentiated state. A decrease of more than 70% would be indicative of the presence of a very important shift towards a differentiated state. A sustained decrease (e.g. for at least 96 h) of more than 50% or 70% would be indicative of the presence of an even more important shift towards a differentiated state.
# Likewise, using the method detailed in the description, the RMSD of 75 GFR-binding peptide sequence representatives of the invention have been determined (Table 8) and correlated with the expression of STRO-1. SEQ ID NO: 1 to 49 were tested in combination with a bioactive carrier as defined above in the Examples Section (i.e. titanium, ceramics, collagen, etc. . . . ), whereas SEQ ID NO: 2242 to 2267 were tested in solution.
row,Substance,STRO-1 expression (%)
1,"2158 (VEQLSNMVVK; Peptide reported in US20130259924, SEQ ID NO:21667) [compound 2158]",98
2,"2159 (PIIYYVGRNVRVEQLSNMVVRA; Peptide reported in US5436228, SEQ ID NO:14) [compound 2159]",92

# Same assay, conditions: Table 8, SEQ ID NO: 1 to 49 tested in combination with a bioactive carrier (titanium, ceramics, collagen, etc.)
row,Substance,STRO-1 expression (%)
1,1 (CKVPKPSSAPTQLSAISTLYLDEYDKVVLKNYQNMVVRA; not fully specified; ends and bridges not checked) [compound 1],26
2,2 (CKVGKASSVPTKLSAISTLYLDDMGVPTLKNYQNMVVRASGSH; not fully specified; ends and bridges not checked) [compound 2],21
3,3 (CASASPSSVSQDLSAISTLYLIGKTPKILKNYQMIVKSSKSS; not fully specified; ends and bridges not checked) [compound 3],18
4,"5 (CASASPXXVSQDLNAISVLYFIGKTPKILKKYRMIVKSXKXS; GFR-binding peptide; MOD_RES (7), (8), (39), (41): Xaa is C or S) [compound 5]",26
5,"6 (CAVPKAXXAPTKLSATSVLYYDSSNNVVLRKHRNMVVK; GFR-binding peptide; MOD_RES (7), (8): Xaa is C or S) [compound 6]",26
6,"7 (CTVPKPXXAPTQLSPISVLYKDDSSNVILKYHYNMVVRAXGXH; GFR-binding peptide; MOD_RES (7), (8), (40), (42): Xaa is C or S) [compound 7]",18
7,8 (CAPTQLSPISVLYKDDSSNVILKYHYTLEDH; GFR-binding peptide) [compound 8],19
8,9 (CRNVQCRPTQVQLSAISTLYLEIVRKKPLKNYQTLEDH; GFR-binding peptide) [compound 9],19
9,10 (CPSSAPTQLSATSVLYYDDSSNVILRKHRQHNK; GFR-binding peptide) [compound 10],19
10,11 (CPKPSSAPTQLNAISMLYFGGGGGGGLKKYRNMVVRA; GFR-binding peptide) [compound 11],31
11,12 (CKVPKASSVPTELSAISTLYLAAAALKNYQEM; GFR-binding peptide) [compound 12],28
12,13 (CSIPKASSVPTELSATSVLYYDEYDEKVVLRKHEMVVEG; not fully specified; ends and bridges not checked) [compound 13],23
13,14 (CAPTKLSAISMLYLDSSNNVILKNYQ; GFR-binding peptide) [compound 14],16
14,15 (CASSAVSQELSAISMLYLGGGLKNYQDM; GFR-binding peptide) [compound 15],21
15,16 (CKASSVPTELSPISTLYKDENEKVVLKYHYDMVVEGSGSR; not fully specified; ends and bridges not checked) [compound 16],18
16,17 (CASAAPSSVPQKLNAISMLYFVGRKPKVLKKYRMIVRS; not fully specified; ends and bridges not checked) [compound 17],21
17,18 (CKVGKASSVPTKLNAISTLYLDENEKVVLKKYREGMS; not fully specified; ends and bridges not checked) [compound 18],19
18,19 (CPKPSSAPTQLSAISTLYLDDSSNVILKNYQMIVVRA; GFR-binding peptide) [compound 19],20
19,20 (CKVGKASSVPTKLNAISTLYLDDSSNVILKNYQ; not fully specified; ends and bridges not checked) [compound 20],18
20,21 (CGGGSSVPTELSAISTLYLDDYDKVILKKYRNM; GFR-binding peptide) [compound 21],14
21,22 (WWFWGKVPKPSSAPTQLSAISTLYLDEYDKVVLKNYQNMVVR; not fully specified; ends and bridges not checked) [compound 22],17
22,23 (GTPGPKVPKPSSAPTQLSAISTLYLDEYDKVVLKNYQNMAVR; not fully specified; ends and bridges not checked) [compound 23],17
23,24 (GTPGPPSSAPTQLSATSVLYYDDSSNVILRKHRMIVKS; GFR-binding peptide) [compound 24],21

row,Substance,STRO-1 expression (%)
1,25 (GTPGPAPTQLSPISVLYKDDSSNVILKYHY; GFR-binding peptide) [compound 25],23
2,26 (GTPGPASSAVSQELSAISMLYLGGGLKNYQDM; GFR-binding peptide) [compound 26],22
3,27 (GTPGPAPTKLSAISMLYLDSSNNVILRKHR; GFR-binding peptide) [compound 27],19
4,28 (GTPGPAPTKLSAISMLYLDSSNNVILKKYR; GFR-binding peptide) [compound 28],19
5,29 (GTPGPKASSVPTELSPISTLYKDENEKVVLKYHYDMVVEGSGSR; not fully specified; ends and bridges not checked) [compound 29],21
6,30 (GTPGPKASSVPTELSPISTLYKDENEKVVLKYHYDM; GFR-binding peptide) [compound 30],18
7,31 (GTPGPPKPSSAPTQLNAISMLYFGGGGGLKKYRDMQHN; GFR-binding peptide) [compound 31],31
8,32 (WWFWGKASSVPTELSPISTLYKDENEKVVLKYHYDMVVEGSGSR; not fully specified; ends and bridges not checked) [compound 32],21
9,33 (WWFWGASSAVSQELSAISMLYLGGGLKNYQDMQHN; GFR-binding peptide) [compound 33],28
10,34 (GTPGPRNVQCRPTQVQLSAISTLYLEIVRKKPLKNYQTLEDH; GFR-binding peptide) [compound 34],18
11,35 (GTPGPRNVQCRPTQVQLSAISTLYLAAALKNYQTLE; GFR-binding peptide) [compound 35],28
12,36 (CKIPKASSVPTELEPLPIVYYVGRKPKVEQLSNMIVRS; not fully specified; ends and bridges not checked) [compound 36],19
13,38 (CVPTEERSVKVAKVRIKPHQGQHKEVQV; GFR-binding peptide) [compound 38],23
14,39 (CVPTEESNITMQIMRIKPHQGQHIGEMSFL; GFR-binding peptide) [compound 39],16
15,41 (CGIPEPSSVPEKMSSLSILFFDENKNVVLKVYPNM; not fully specified; ends and bridges not checked) [compound 41],22
16,43 (CAAPASSSVPARLSPISILYIDAANNVVYKQYEDMVVEASG; not fully specified; ends and bridges not checked) [compound 43],27
17,44 (CAAPASSSVPARLSPISILYIDAANNVVYKQYEDMVVE; not fully specified; ends and bridges not checked) [compound 44],27
18,45 (CAAPASSSVPARLSPISLLYIDAANNVVYKQYEDM; not fully specified; ends and bridges not checked) [compound 45],24
19,46 (CPARLSPISLLYIDAANNVVYKQYEDM; GFR-binding peptide) [compound 46],19
20,"47 (CAAAPASXXVPARLSPISILYIAAAYKQYEDM; GFR-binding peptide; MOD_RES (8), (9): Xaa is C or S) [compound 47]",18
21,48 (CVPQRLSPISILYIDAANNVVYKQYE; GFR-binding peptide) [compound 48],18
22,"49 (CTVPKPXXAPTQLSPISILYIDAANNVVYKQYEDMVVRA; GFR-binding peptide; MOD_RES (7), (8): Xaa is C or S) [compound 49]",18

# From US20220267394A1, “COMPOUNDS FOR INDUCING TISSUE FORMATION AND USES THEREOF” (HISTIDE AG, priority 2015, published 2022)
